Assay results published in PMC10700596 (Nature Communications, 2023).
pKi: −log10 of the molar value. Like-named read-outs stand apart in the source and are kept apart here.

How the values were obtained:
EP4R = target: T1, EP4R (Homo sapiens, UniProt P35408); test: PRESTO-Tango β-arrestin2 recruitment assay; assay type: cell-based
T1 construct: Tango fusion cassette (only 'tango' is printed); expressed in transfected cells; host or cells: HTLA cells (tTA-dependent luciferase reporter, β-arrestin2-TEV fusion)
T1 sequence (P35408 whole entry, the tested form may be a part): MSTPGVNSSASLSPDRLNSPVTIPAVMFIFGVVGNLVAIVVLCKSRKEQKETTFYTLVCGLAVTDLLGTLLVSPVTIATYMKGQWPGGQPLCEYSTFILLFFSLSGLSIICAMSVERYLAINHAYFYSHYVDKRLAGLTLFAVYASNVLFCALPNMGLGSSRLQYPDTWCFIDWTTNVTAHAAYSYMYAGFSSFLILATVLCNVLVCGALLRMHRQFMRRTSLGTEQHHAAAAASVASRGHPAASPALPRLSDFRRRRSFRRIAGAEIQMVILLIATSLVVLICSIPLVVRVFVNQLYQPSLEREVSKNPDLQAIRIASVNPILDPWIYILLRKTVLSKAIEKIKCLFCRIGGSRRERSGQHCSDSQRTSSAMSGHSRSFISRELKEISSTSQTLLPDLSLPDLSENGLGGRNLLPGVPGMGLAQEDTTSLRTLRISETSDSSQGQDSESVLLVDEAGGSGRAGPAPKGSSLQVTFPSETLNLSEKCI

in vivo = assay type: in vivo, mice
[1] = male, CD-1, mouse, plasma, ip, 10 mg/kg, mice, IP 10 mg/kg, plasma, mean of 3 animals, read-out: Plasma concentration C (mean)
[2] = male, CD-1, mouse, plasma, ip, 10 mg/kg, mice, IP 10 mg/kg, plasma, single animal, D=1, read-out: Final plasma concentration, individual sample
[3] = male, CD-1, mouse, plasma, iv, 10 mg/kg, mice, IV 10 mg/kg, plasma, single animals, read-out: Plasma concentration, Final (individual mouse)
[4] = male, CD-1, mouse, plasma, iv, 10 mg/kg, mice, IV 10 mg/kg, plasma, read-out: Plasma concentration C (mean)

Compound: O=C([O-])C1CCC2(CC1)CC(Nc1ncnc3[nH]c4c(F)cccc4c13)C2.[Na+] (centres unmarked) [Compound 77, [Na+].[O-]C(=O)C1CCC2(CC(C2)NC=3N=CN=C4NC=5C(F)=CC=CC5C34)CC1]
- IC50 (EP4R; PRESTO-Tango IC50 (nM)): 232 nM
- pKi (EP4R; calculated using the Cheng Prusoff equation, read-out: PRESTO-Tango Ki*): 7.34
- concentrations in blood compared to CJ-42794 (in vivo; 10 mg/kg i.p., two to four hours after injection): higher concentrations in blood two to four hours after injection
- concentration at 5 min (in vivo; [1]): 2420 ng/mL
- concentration at 5 min (in vivo; [2]): 2380 ng/mL
- concentration at 15 min (in vivo; [1]): 7250 ng/mL
- concentration at 15 min (in vivo; [2]): 6880 ng/mL
- concentration at 30 min (in vivo; [1]): 6710 ng/mL
- concentration at 30 min (in vivo; [2]): 8130 ng/mL
- concentration at 60 min (in vivo; [1]): 9910 ng/mL
- concentration at 60 min (in vivo; [2]): 10900 ng/mL
- concentration at 120 min (in vivo; [1]): 6380 ng/mL
- concentration at 240 min (in vivo; [1]): 3590 ng/mL
- concentration at 360 min (in vivo; [1]): 1980 ng/mL
- concentration at 360 min (in vivo; [2]): 1660 ng/mL
- concentration at 480 min (in vivo; [1]): 753 ng/mL
- concentration at 480 min (in vivo; [2]): 889 ng/mL
- concentration at 1440 min (in vivo; [1]): 17 ng/mL
- concentration at 1440 min (in vivo; [2]): 18.9 ng/mL
- Cmax (in vivo; male, CD-1, mouse, plasma, ip, 10 mg/kg i.p., mice): 9910 ng/mL
- AUC (in vivo; male, CD-1, mouse, plasma, ip, 10 mg/kg i.p., mice, read-out: plasma AUC (converted)): 39500 ng·h/mL
- concentration at 5 min (in vivo; [3]): 24100 ng/mL
- concentration at 5 min (in vivo; [4]): 26200 ng/mL
- concentration at 15 min (in vivo; [3]): 14400 ng/mL
- concentration at 15 min (in vivo; [4]): 17000 ng/mL
- concentration at 30 min (in vivo; [3]): 10900 ng/mL
- concentration at 30 min (in vivo; [4]): 12700 ng/mL
- concentration at 60 min (in vivo; [3]): 11000 ng/mL
- concentration at 60 min (in vivo; [4]): 10500 ng/mL
- concentration at 120 min (in vivo; [3]): 4760 ng/mL
- concentration at 120 min (in vivo; [4]): 4090 ng/mL
- concentration at 240 min (in vivo; [3]): 2370 ng/mL
- concentration at 240 min (in vivo; [4]): 2080 ng/mL
- concentration at 360 min (in vivo; [3]): 1260 ng/mL
- concentration at 360 min (in vivo; [4]): 1730 ng/mL
- concentration at 480 min (in vivo; [4]): 1240 ng/mL
- concentration at 1440 min (in vivo; [4]): 43.2 ng/mL
- AUC (in vivo; male, CD-1, mouse, plasma, iv, 10 mg/kg i.v., mice, read-out: AUC (converted)): 46200 ng·h/mL
- bioavailability (in vivo; male, CD-1, mouse, plasma, oral, 30 mg/kg p.o. vs 10 mg/kg i.v., mice): 78%
- concentration at 5 min (in vivo; male, CD-1, mouse, plasma, po, 30 mg/kg, mice, PO 30 mg/kg, plasma, read-out: Plasma concentration C (mean)): 4340 ng/mL
- concentration at 15 min (in vivo; male, CD-1, mouse, plasma, po, 30 mg/kg, mice, PO 30 mg/kg, plasma, single animals, read-out: Plasma concentration, Final (individual mouse)): 17600 ng/mL
